Data set [1] is described as follows: Vapor pressure at 30° C. on the cox diagram. The data set is classed as physicochemical. The protocol:
Compounds which are hard to vaporize at normal temperature can be used in the present invention as a pesticidal component. Those having a vapor pressure […] than 1×10^−7 mmHg at 30° C. and a boiling point of not lower than 120° C./1 mmHg are preferred. It should be noted that the range of vapor pressure as referred to herein is the range at 30° C. on the vapor pressure vs. temperature plot in the cox diagram hereinafter described.
The results of our study have made it possible to suppose or know the vapor pressure at a target temperature by utilizing the cox diagram only if at least one found value is available. The aforesaid problem can thus be solved.
The cox diagram as used herein is the straight line or a group of the straight lines obtained by plotting log P as ordinate and t/(t+C) as abscissa on a graph.

Data set [2] relates to Northern house mosquito (female adult). The data set can be described thus: Insecticidal test in acrylic resin cylinder, air blown through impregnated honeycomb carrier (Example 1). The data set is classed as in vivo. To be noted: 500 mg preparation; for number of knockdowns: 26 to 30° C. The text has this: Testing apparatus 1 shown in FIG. 1 comprising acrylic resin cylinder 4 was used. Twenty of northern house mosquitos (female adult) were put in the space partitioned with insect nets 2, and blower 3 was set at the bottom of testing apparatus 1. Preparation-retaining material 5 comprising a honeycomb carrier impregnated with a preparation was fitted in at the lower part of cylinder 4 and above blower 3. Air was blown from the bottom of cylinder 4 and passed through the preparation-retaining material 5 to release the pesticidal component from the preparation, and the insecticidal effect was examined using apparatus 1 for insect control of the present invention.
The number of knockdowns of the mosquitos was counted for every 30 seconds during 10 minutes and 30 seconds following the start of the testing. The mosquitos knocked down were transferred to a clean plastic cup (volume: about 500 ml) containing a cotton wad impregnated with a 1% aqueous sugar solution as feed, and the cup was covered and maintained under constant temperature conditions of about 25° C. […]
The preparation-retaining material used herein was prepared as follows. A honeycomb structure (70×70×15 mm) comprising a laminate of corrugated boards (single-sided) made of bleached kraft paper having a basis weight of 80 g/m^2 (height of the corrugation: about 2 mm) was uniformly impregnated with 3 ml of an acetone solution containing about 500 mg of preparation. The impregnated carrier was set in the apparatus after acetone vaporized.

Data set [3] concerns sensitive German cockroaches (Blatella germanica). Put plainly: Cockroach knockdown and mortality in 24 m^3 test room (Example 3). The data set is classed as in vivo. To be noted: 1.0 g pesticidal component. On the procedure:
(§1) The insect pest control apparatus of the present invention was put at the center of the floor of the room, and two cups each containing 20 cockroaches were placed at each of the two opposite corners of the floor. The pesticidal component shown in Table 5 below was released from the apparatus for consecutive 24 hours. As test insects, sensitive German cockroaches (Blatella germanica) and sensitive smokybrown cockroaches (Periplaneta fuliginosa) were used.
(§2) The preparation-retaining material used was prepared by impregnating a honeycomb carrier (70×70×15 mm; FIG. 3) with 1.0 g of the pesticidal component.

The test system of data set [4] is sensitive smokybrown cockroaches (Periplaneta fuliginosa). Described as above. Type of data set: in vivo. Conditions: 1.0 g pesticidal component. On the procedure: as §1, §2
Data set [5] is described as follows: Vapor pressure measurement of pyrethroid compounds with the vapor pressure measuring apparatus.
For data set [6] the following is noted: at 30° C.; cited from earlier work.

Like-named read-outs stand apart in the source and are kept apart here.

The values below come from patent publication US6391329B1, “Insect pest control method” (Earth Chemical Co., Ltd., priority 1994, dated 2002).

As for `C#CC(OC(=O)C1C(C=C(C)C)C1(C)C)/C(C)=C/CC` (mixture of isomers) [empenthrin, 1-ethynyl-2-methyl-2-pentenyl dl-cis/trans-3-(2,2-dimethylvinyl)-2,2-dimethyl-1-cyclopropanecarboxylate], the “Vapor Pressure at 30° C.” value in data set [1] was 1.5 × 10^−3 mmHg. Besides, the number of knockdowns is reported as 0 in data set [2] (0.5 min); 0 in data set [2] (1.0 min); 1 in data set [2] (1.5 min); 2 in data set [2] (2.0 min); 5 in data set [2] (2.5 min); 10 in data set [2] (3.0 min). Moreover, the figures for the number of knockdowns in data set [2] (3.5 min) and in data set [2] (4.0 min) were 16 and 25, respectively. In addition, the “Mortality (%)” value in data set [2] (24 hrs.) is listed as 96%; in data set [2] (48 hrs.) it was 100%. In addition, the “Knockdown Ratio (%)” value is listed as 0% in data set [3] (1 hr); 0% in data set [3] (2 hrs); 0% in data set [3] (4 hrs); 90.0% in data set [3] (24 hrs); 0% in data set [4] (1 hr); 0% in data set [4] (2 hrs). Moreover, the “Knockdown Ratio (%)” value in data set [4] (4 hrs) came to 0%; in data set [4] (24 hrs), 65.0%. Moreover, the results for the “Mortality at 48 hrs (%)” value in data set [3] (48 hrs) and in data set [4] (48 hrs) were 90.0% and 75.0%, respectively. Besides, the “Vapor Pressure” value in data set [5] (20° C.) is recorded as 5.1 × 10^−4 mmHg; in data set [5] (25° C.), 9.2 × 10^−4 mmHg; in data set [5] (30° C.), 1.6 × 10^−3 mmHg; in data set [5] (35° C.), 2.8 × 10^−3 mmHg; in data set [5] (40° C.), 4.8 × 10^−3 mmHg.
In the case of `CC(C)=CC1C(C(=O)OCc2coc(Cc3ccccc3)c2)C1(C)C` (mixture of isomers) [resmethrin, (5-benzyl-3-furyl)methyl d-cis/trans-chrysanthemate], the “Vapor Pressure at 30° C.” value in data set [1] was 1.7 × 10^−5 mmHg. Also, the number of knockdowns is listed as 0 in data set [2] (0.5 min); 0 in data set [2] (1.0 min); 0 in data set [2] (1.5 min); 0 in data set [2] (2.0 min); 2 in data set [2] (2.5 min); 2 in data set [2] (3.0 min). Moreover, the number of knockdowns was 4 in data set [2] (3.5 min); 5 in data set [2] (4.0 min); 5 in data set [2] (4.5 min); 7 in data set [2] (5.0 min); 7 in data set [2] (5.5 min); 8 in data set [2] (6.0 min). Moreover, the number of knockdowns in data set [2] (6.5 min) was 10; in data set [2] (7.0 min) it was 12; in data set [2] (7.5 min) it was 13; in data set [2] (8.0 min), 16; in data set [2] (8.5 min) it was 17; in data set [2] (9.0 min) it was 19. The results for the “Mortality (%)” value in data set [2] (24 hrs.) and in data set [2] (48 hrs.) were 58% and 79%, respectively. Also, the “Vapor Pressure” value is 3.5 × 10^−6 mmHg in data set [5] (20° C.); 7.1 × 10^−6 mmHg in data set [5] (25° C.); 1.7 × 10^−5 mmHg in data set [5] (30° C.); 2.8 × 10^−5 mmHg in data set [5] (35° C.); 5.6 × 10^−5 mmHg in data set [5] (40° C.).
In the case of `C=CCC1=C(C)C(OC(=O)C2C(C)(C)C2(C)C)CC1=O` (racemic) [terallethrin, dl-3-allyl-2-methyl-4-oxo-2-cyclopentenyl dl-cis/trans-2,2,3,3-tetramethylcyclopropanecarboxylate], in data set [1], the “Vapor Pressure at 30° C.” value is recorded as 6.6 × 10^−4 mmHg. In addition, the number of knockdowns in data set [2] (0.5 min) was determined as 0; in data set [2] (1.0 min), 0; in data set [2] (1.5 min), 4; in data set [2] (2.0 min), 15; in data set [2] (2.5 min) it was 17. For the same compound, the “Mortality (%)” value in data set [2] (24 hrs.) is on record as 88%; in data set [2] (48 hrs.) it was 100%. For the same compound, the “Vapor Pressure” value in data set [5] (20° C.) is 2.2 × 10^−4 mmHg; in data set [5] (25° C.), 4.2 × 10^−4 mmHg; in data set [5] (30° C.), 6.6 × 10^−4 mmHg; in data set [5] (35° C.), 1.2 × 10^−3 mmHg; in data set [5] (40° C.), 4.8 × 10^−3 mmHg.
As for `COP(=O)(OC)OC=C(Cl)Cl` [DDVP], the Vapor Pressure in data set [6] is reported as 1×10^−2 mmHg; in data set [5] (20° C.), 1.2 × 10^−2 mmHg; in data set [5] (25° C.) it was 1.9 × 10^−2 mmHg; in data set [5] (30° C.) it was 3.0 × 10^−2 mmHg; in data set [5] (35° C.), 4.6 × 10^−2 mmHg; in data set [5] (40° C.), 7.1 × 10^−2 mmHg.
